Data taken from ChEMBL document CHEMBL5230103, “Hydroxamic acid hybrids as the potential anticancer agents: An Overview” (Eur J Med Chem, 2020).
Blank lines part the entries; values can stand above or below the molecule they belong to.

How the values were obtained:
[1] = tested on: PC-3; assay: Cytotoxicity against human PC-3 cells assessed as inhibition of cell growth by MTT assay; type: functional, cell-based
[2] = target: Histone deacetylase 2 (Homo sapiens, UniProt Q92769); assay: Inhibition of HDAC2 (unknown origin)
[3] = tested on: SW-620; assay: Cytotoxicity against human SW620 cells assessed as inhibition of cell growth by MTT assay; type: functional, cell-based
[4] = tested on: ASPC1; assay: Cytotoxicity against human ASPC1 cells assessed as inhibition of cell growth by MTT assay; type: functional, cell-based
[5] = target: Histone deacetylase; assay: Inhibition of HDAC (unknown origin); type: protein assay, Homo sapiens
[6] = tested on: PC-3; assay: Cytotoxicity against human PC-3 cells assessed as inhibition of cell growth by SRB assay; type: functional, cell-based
[7] = tested on: MV4-11; assay: Cytotoxicity against human MV4-11 cells assessed as inhibition of cell growth by SRB assay; type: functional, cell-based
[8] = tested on: MCF7; assay: Cytotoxicity against human MCF7 cells assessed as inhibition of cell growth by MTT assay; type: functional, cell-based
[9] = tested on: HepG2; assay: Cytotoxicity against human HepG2 cells assessed as inhibition of cell growth by MTT assay; type: functional, cell-based
[10] = tested on: HCT-116; assay: Cytotoxicity against human HCT-116 cells assessed as inhibition of cell growth by MTT assay; type: functional, cell-based
[11] = tested on: SW-620; assay: Potency index, ratio of vorinostat IC50 to test compound IC50 for cytotoxicity against human SW620 cells assessed as inhibition of cell growth by MTT assay; type: functional
[12] = tested on: PC-3; assay: Potency index, ratio of vorinostat IC50 to test compound IC50 for cytotoxicity against human PC-3 cells assessed as inhibition of cell growth by MTT assay; type: functional
[13] = tested on: NCI-H23; assay: Cytotoxicity against human NCI-H23 cells assessed as inhibition of cell growth by MTT assay; type: functional, cell-based
[14] = tested on: NCI-H23; assay: Potency index, ratio of vorinostat IC50 to test compound IC50 for cytotoxicity against human NCI-H23 cells assessed as inhibition of cell growth by MTT assay; type: functional
[15] = tested on: MCF7; assay: cells; type: functional, cell-based; settings: Homo sapiens, MCF7, 72 h
Description: Cytotoxicity against human MCF7 cells assessed as inhibition of cell growth measured after 72 hrs by MTT assay

[16] = tested on: U2OS; assay: cells; type: functional, cell-based; settings: Homo sapiens, 72 h
Description: Cytotoxicity against human U2OS cells assessed as inhibition of cell growth measured after 72 hrs by MTT assay

[17] = tested on: HepG2; assay: Cytotoxicity against human HepG2 cells assessed as inhibition of cell growth measured after 72 hrs by MTT assay; type: functional, cell-based; settings: HepG2, 72 h
[18] = tested on: A549; assay: Cytotoxicity against human A549 cells assessed as inhibition of cell growth by MTT assay; type: functional, cell-based
[19] = tested on: K562; assay: Cytotoxicity against human K562 cells assessed as inhibition of cell growth by MTT assay; type: functional, cell-based
[20] = tested on: MDA-MB-231; assay: Cytotoxicity against human MDA-MB-231 cells assessed as inhibition of cell growth by MTT assay; type: functional, cell-based
[21] = tested on: RPMI-8226; assay: Cytotoxicity against human RPMI-8226 cells assessed as inhibition of cell growth by MTS assay; type: functional, cell-based

Chain of Histone deacetylase 2 (Q92769 whole entry): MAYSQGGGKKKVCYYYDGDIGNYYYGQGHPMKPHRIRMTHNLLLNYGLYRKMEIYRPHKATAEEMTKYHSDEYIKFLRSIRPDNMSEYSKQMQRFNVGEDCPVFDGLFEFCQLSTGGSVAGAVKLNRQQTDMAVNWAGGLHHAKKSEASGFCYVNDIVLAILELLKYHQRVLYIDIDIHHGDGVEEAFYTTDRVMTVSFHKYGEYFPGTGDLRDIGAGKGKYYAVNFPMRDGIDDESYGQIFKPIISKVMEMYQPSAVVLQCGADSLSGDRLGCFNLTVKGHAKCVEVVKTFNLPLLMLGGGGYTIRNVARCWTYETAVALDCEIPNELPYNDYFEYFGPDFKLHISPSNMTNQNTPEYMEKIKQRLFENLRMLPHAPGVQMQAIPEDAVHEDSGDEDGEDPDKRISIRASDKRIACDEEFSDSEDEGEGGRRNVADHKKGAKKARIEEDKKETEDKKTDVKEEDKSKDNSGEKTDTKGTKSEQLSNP

SMILES: O=C(COc1ccc(C(=O)/C=C/c2ccc(F)cc2)cc1)NO
- IC50 [8]: 620 nM
- IC50 [9]: 620 nM
- IC50 [10]: 620 nM

SMILES: O=C(CCCCCCn1cnc2c(c1=O)C1CCCCC1S2)NO (stereo not drawn)
- IC50 [8]: 3320 nM
- IC50 [9]: 3320 nM
- IC50 [10]: 3320 nM

SMILES: Cc1nc2ccc(Cl)cc2c(=O)n1Cc1ccc(C(=O)NO)cc1
- IC50 [1]: 620 nM
- IC50 [5]: 760 nM
- IC50 [3]: 620 nM
- Ratio IC50 [11]: >3
- Ratio IC50 [12]: >3
- IC50 [13]: 620 nM
- Ratio IC50 [14]: >3

SMILES: COc1cc2ncn(Cc3ccc(C(=O)NO)cc3)c(=O)c2cc1OC
- IC50 [1]: 620 nM
- IC50 [5]: 370 nM
- IC50 [3]: 620 nM
- Ratio IC50 [11]: >3
- Ratio IC50 [12]: >3
- IC50 [13]: 620 nM
- Ratio IC50 [14]: >3

SMILES: CCCCCSc1ncc(C(=O)NO)c(N(Cc2ccccc2)S(=O)(=O)c2cccc(OC)c2)n1
- IC50 [21]: > 5600 nM

SMILES: O=C(/C=C/c1ccc(CN2C(=O)C3(OCCO3)c3ccccc32)cc1)NO
- IC50 [1]: > 3050 nM
- IC50 [3]: > 3050 nM
- IC50 [4]: > 3050 nM

SMILES: O=C(CCCCCCC(=O)Nc1nnc(-c2cccs2)s1)NO
- IC50 [8]: 880 nM
- IC50 [1]: 880 nM
- IC50 [3]: 880 nM
- IC50 [4]: 880 nM

SMILES: O=C(CCCCCCCn1cnc2c(c1=O)C1CCCCC1S2)NO (stereo not drawn)
- IC50 [8]: 3320 nM
- IC50 [9]: 3320 nM
- IC50 [10]: 3320 nM

SMILES: O=C(Cn1cnc2c(c1=O)C1CCCCC1S2)NCc1ccc(C(=O)NO)cc1 (stereo not drawn)
- IC50 [8]: 4860 nM
- IC50 [9]: 4860 nM
- IC50 [10]: 4860 nM

SMILES: O=C(CCCCCCC(=O)Nc1nnc(-c2ccc(Br)o2)s1)NO
- IC50 [8]: 880 nM
- IC50 [1]: 880 nM
- IC50 [3]: 880 nM
- IC50 [4]: 880 nM

SMILES: O=C(/C=C/c1ccc(Cn2cnc3cc(F)ccc3c2=O)cc1)NO
- IC50 [1]: 620 nM
- IC50 [5]: 150 nM
- IC50 [3]: 620 nM
- Ratio IC50 [11]: >3
- Ratio IC50 [12]: >3
- IC50 [13]: 620 nM
- Ratio IC50 [14]: >3

SMILES: CCCCCSc1ncc(C(=O)NO)c(N(Cc2ccccc2)S(=O)(=O)c2ccc(F)cc2)n1
- IC50 [21]: > 5600 nM

SMILES: O=C(Cn1cnc2c(c1=O)C1CCCCC1S2)Nc1ccc(C(=O)NO)cc1 (stereo not drawn)
- IC50 [8]: 4860 nM
- IC50 [9]: 4860 nM
- IC50 [10]: 4860 nM

Second part, led by results:

- IC50 [2]: 30 nM
SMILES: O=C(CCCCCCN1C(=O)C2(OCCO2)c2cccc(Cl)c21)NO
- IC50 [1]: 50 nM
- IC50 [3]: 50 nM
- IC50 [4]: 50 nM

- IC50 [5]: 278 nM
SMILES: CC(C)n1cnc2c(-c3ccc(COCCCCCC(=O)NO)cc3)nc(N3CCOCC3)nc21
- IC50 [6]: 970 nM
- IC50 [7]: 970 nM

- IC50 [5]: 278 nM
SMILES: CC(C)n1cnc2c(-c3ccc(COCCCCCCC(=O)NO)cc3)nc(N3CCOCC3)nc21
- IC50 [6]: 970 nM
- IC50 [7]: 970 nM

- IC50 [2]: 30 nM
SMILES: COc1ccc2c(c1)C1(OCCO1)C(=O)N2CCCCCCC(=O)NO
- IC50 [1]: 50 nM
- IC50 [3]: 50 nM
- IC50 [4]: 50 nM

- IC50 [15]: 1600 nM
- IC50 [16]: 1600 nM
SMILES: COc1cc(NC(C)CCCCCCNC(=O)CCC(=O)NO)c2ncccc2c1 (stereo not drawn)
- IC50 [17]: 1600 nM

- IC50 [5]: 278 nM
SMILES: CC(C)n1cnc2c(-c3ccc(COCCCCC(=O)NO)cc3)nc(N3CCOCC3)nc21
- IC50 [6]: 970 nM
- IC50 [7]: 970 nM

- IC50 [5]: 200 nM
SMILES: O=C(CCC(=O)Nc1nnc(-c2ccc(O)cc2)s1)NO
- IC50 [18]: 14700 nM
- IC50 [19]: 14700 nM
- IC50 [1]: 14700 nM
- IC50 [20]: 14700 nM

- IC50 [5]: 278 nM
SMILES: CC(C)n1cnc2c(-c3ccc(COCCCCCCCC(=O)NO)cc3)nc(N3CCOCC3)nc21
- IC50 [6]: 970 nM
- IC50 [7]: 970 nM

- IC50 [2]: 910 nM
SMILES: O=C(CCCn1cc(CN2C(=O)/C(=N\O)c3cc(Br)ccc32)nn1)NO

- IC50 [5]: 35 nM
SMILES: CC(C)n1cnc2c(-c3cccc(OCCCCCCC(=O)NO)c3)nc(N3CCOCC3)nc21
- IC50 [6]: 160 nM
- IC50 [7]: 160 nM

- IC50 [5]: 35 nM
SMILES: CC(C)n1cnc2c(-c3cccc(COCCCCCCCC(=O)NO)c3)nc(N3CCOCC3)nc21
- IC50 [6]: 160 nM
- IC50 [7]: 160 nM

- IC50 [2]: 910 nM
SMILES: O=C(CCCn1cc(CN2C(=O)/C(=N\O)c3cc(F)ccc32)nn1)NO

- IC50 [5]: 278 nM
SMILES: CC(C)n1cnc2c(-c3ccc(OCCCCC(=O)NO)cc3)nc(N3CCOCC3)nc21
- IC50 [6]: 970 nM
- IC50 [7]: 970 nM
